According to PMC3806745, “Selective Inhibition of Matrix Metalloproteinase-9 Attenuates Secondary Damage Resulting from Severe Traumatic Brain Injury” (PLoS ONE, 2013):
Where two headings read alike, the source gives them in different places.

Assays:
[1] = test system: TBI mouse model (EM impactor CCI); test: Brain lesion volume in cresyl violet-stained sections after TBI (stereology, WSI); format: in vivo; conditions: TBI mice, 25 mg/kg i.p. for 7 days
Method: All animal procedures were performed under the compliance with protocol approval by the University of Missouri Animal Care and Use Committee, which is in accordance with the National Institutes of Health Guide for the Care and Use of Laboratory Animals. The TBI procedure employed an EM impactor for CCI and was conducted as previously described. A total of 86 mice were used in this study. Briefly, 8–10 week-old adult male C57BL/6J mice (The Jackson Laboratory, Bar Harbor, ME) weighing 20–25 g were anesthetized with 2.0% gaseous isoflurane in a nitrogen/oxygen mixture inside a sealed anesthesia chamber. Each mouse was then stably placed on a Kopf stereotaxic apparatus (David Kopf Instruments, Tujunga, CA). Body temperature was monitored with a rectal thermistor probe (TH-10Kmp, Cell MicroControls, Norfolk, VA), and maintained at a constant 37°C on a silicon heating pad (HS-3×2.5 Heater, Cell MicroControls, Norfolk, VA). Following a midline skin incision and removal of connective tissue under sterile conditions, a 5.0 mm diameter craniotomy was performed in the left parietotemporal skull using a pedal-operated high-speed micro-drill mounted on the stereotaxic arm. A 5.0-mm diameter bone disc was then removed to expose the left cortex, while keeping the dura mater intact. A MATLAB-controlled EM impactor (MyNeuroLab Stereotaxic Impactor, St. Louis, MO) with a 3.0-mm diameter tip was centered at 2.7 mm to the left of the midline suture and 3.0 mm rostral to lambda, at an angle of 15° with the vertical. Once the position was set, the EM impactor delivered a CCI with a velocity of 5.0 m/s and dwell time of 100 ms, at a depth of 2.5 mm. This operation produces a moderately severe contusion in the left parietotemporal cortex and the underlying hippocampus as marked by pronounced behavioral deficits, but virtually no mortality. Following impact, the original skull disc was placed back over the exposed cortex, and the incision was sutured. Each mouse was released from anesthesia and placed in an empty cage over a heating pad for recovery. All efforts were made to minimize animal suffering. For sham control mice used in the study, only the craniotomy was performed. […] Mice were observed daily for the duration of the study (7 or 30 days). For design of the 30-day long term study, animals in each group were double-blinded and randomly assigned into two different tissue process procedures after behavioral testing–mouse brains were either fixed and sectioned for histopathological evaluation, or freshly dissected and then frozen at −80°C for later analysis, reflecting the difference of the animal numbers mentioned in the legends of Figures 7 and 8.
At 7 or 30 days after TBI, mice were sacrificed and brains were processed for histochemical staining and assessment of brain lesion volumes using the stereology technique as described, [45]. Briefly, mice were sacrificed at appropriate experimental time points and transcardially perfused with 4% paraformaldehyde in 100 mM phosphate buffer (PB) and brains were dissected. […] Every 5th section was mounted on poly-L-lysine coated glass slides and stained with cresyl violet to quantify brain lesion volumes and examine neuronal cell death.
Systematic evaluation of a large number of histological specimens in an unbiased manner requires high-speed imaging tools for the supervised analysis of pathological assessment to reduce quantitative variations. […]

[2] = test system: TBI mouse model (EM impactor CCI); test: Barnes maze after TBI; format: in vivo; conditions: TBI mice, 25 mg/kg i.p. for 7 days
Method: (§1) All animal procedures were performed under the compliance with protocol approval by the University of Missouri Animal Care and Use Committee, which is in accordance with the National Institutes of Health Guide for the Care and Use of Laboratory Animals. The TBI procedure employed an EM impactor for CCI and was conducted as previously described. A total of 86 mice were used in this study. Briefly, 8–10 week-old adult male C57BL/6J mice (The Jackson Laboratory, Bar Harbor, ME) weighing 20–25 g were anesthetized with 2.0% gaseous isoflurane in a nitrogen/oxygen mixture inside a sealed anesthesia chamber. Each mouse was then stably placed on a Kopf stereotaxic apparatus (David Kopf Instruments, Tujunga, CA). Body temperature was monitored with a rectal thermistor probe (TH-10Kmp, Cell MicroControls, Norfolk, VA), and maintained at a constant 37°C on a silicon heating pad (HS-3×2.5 Heater, Cell MicroControls, Norfolk, VA). Following a midline skin incision and removal of connective tissue under sterile conditions, a 5.0 mm diameter craniotomy was performed in the left parietotemporal skull using a pedal-operated high-speed micro-drill mounted on the stereotaxic arm. A 5.0-mm diameter bone disc was then removed to expose the left cortex, while keeping the dura mater intact. […]

[3] = mouse, in vivo, ip, 25 mg/kg
Method: (§3) Under anesthesia, terminal blood was collected in heparin tubes through the posterior vena cava at various time points after the last dose, and tubes were centrifuged to collect plasma. Whole brain samples were harvested after transcardiac perfusion with saline and immediately flash frozen in liquid nitrogen and stored at −80°C until analysis. […] At 10 minutes after the last dose, whole brain samples were rapidly dissected into different regions (cortex, striatum, hippocampus, cerebellum and brain stem), and immediately frozen in dry ice.
(§4) A 75-µL aliquot of plasma was mixed with 150 µL of internal standard in acetonitrile. The sample was centrifuged at 10,000×g for 10 minutes. Brain samples were weighed and homogenized for 5 minutes in one volume equivalent of cold acetonitrile, containing an internal standard, using a bullet blender (Next Advance, Inc., Averill Park, NY). For regional brain distribution, the striatum, hippocampus, cerebellum and brain stem samples were pooled from 3 different mice for analysis.
(§5) The homogenates were centrifuged twice at 20,000×g for 20 minutes at 4°C. […] Quantification was performed using peak area ratios relative to the internal standard and linear regression parameters were calculated from the calibration curve standards prepared in blank mouse plasma (and blank brain). The internal standard used in all of the analyses was N-(4-(4-((thiiran-2-ylmethyl)sulfonyl)phenoxy)phenyl)methanesulfonamide [43], which was analyzed by MRM using the transition 398→261.
(§6) Pharmacokinetic parameters were calculated as follows. The area under the mean concentration-time curve up to the last quantifiable sampling time (AUC 0–last) was calculated by the trapezoidal rule using the pharmacokinetic software PK Solutions (Version 2.0, Summit Research Services, Montrose, CO). The AUC-time curve from time zero to infinity (AUC 0–∞), representing systemic exposure of a therapeutic agent in the body, was calculated as AUC 0–last+(C last/k), where C last is the concentration at the last quantifiable sampling time and k is the elimination rate constant. Half-lives (t ½α and t ½β) were estimated from the linear segment of the initial or terminal portion of the concentration-time data by linear regression, where the slope of the line was the rate constant k and t ½ = ln 2/k.

[4] = test system: TBI mouse model (EM impactor CCI); test: Beam-walking test after TBI; format: in vivo; conditions: TBI mice, 25 mg/kg i.p. for 7 days
[5] = test system: TBI mouse model (EM impactor CCI); test: Neurons with dendrites, NeuN/MAP2 immunohistochemistry after TBI; format: in vivo; conditions: TBI mice, 25 mg/kg i.p. for 7 days; 7 days after TBI
Method: as §1, with “VA).” for “VA). Following a midline skin incision and removal of connective tissue under sterile conditions, a 5.0 mm diameter craniotomy was performed in the left parietotemporal skull using a pedal-operated high-speed micro-drill mounted on the stereotaxic arm. A 5.0-mm diameter bone disc was then removed to expose the left cortex, while keeping the dura mater intact.”
(§2) Fluorescence immunohistochemistry was carried out as described, [16], [19]. For each brain analyzed, coronal sections were chosen near the center of the craniotomy (Bregma −1.50 mm) and adjacent to a section stained with cresyl violet for comparison. […]

MMP-9 [6] = target: MMP-9 (Mus musculus, UniProt P41245); test: Gelatin zymography of cortical tissue after TBI; format: in vivo; conditions: TBI mice, 25 mg/kg/day i.p. for 7 days, 7 days post-trauma, vs vehicle
Chain of MMP-9 (Mus musculus, UniProt P41245) (P41245 108-730): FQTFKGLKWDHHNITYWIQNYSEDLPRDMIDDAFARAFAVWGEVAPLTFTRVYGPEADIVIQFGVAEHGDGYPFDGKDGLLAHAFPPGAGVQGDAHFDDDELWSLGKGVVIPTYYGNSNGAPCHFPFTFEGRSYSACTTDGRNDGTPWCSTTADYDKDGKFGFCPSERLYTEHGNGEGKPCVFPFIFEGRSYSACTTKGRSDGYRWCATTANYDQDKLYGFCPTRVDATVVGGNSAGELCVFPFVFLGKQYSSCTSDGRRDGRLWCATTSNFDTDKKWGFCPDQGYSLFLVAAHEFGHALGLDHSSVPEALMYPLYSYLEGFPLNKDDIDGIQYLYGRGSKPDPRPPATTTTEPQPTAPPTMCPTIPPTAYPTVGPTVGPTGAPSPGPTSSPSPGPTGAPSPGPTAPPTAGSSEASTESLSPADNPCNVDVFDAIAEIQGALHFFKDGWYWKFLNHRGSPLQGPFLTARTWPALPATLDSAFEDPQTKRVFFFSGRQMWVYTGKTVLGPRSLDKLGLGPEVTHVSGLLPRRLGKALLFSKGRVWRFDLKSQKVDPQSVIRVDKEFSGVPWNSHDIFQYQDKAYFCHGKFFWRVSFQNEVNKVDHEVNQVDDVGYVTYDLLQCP
Method: as §1, with “VA).” for “VA). Following a midline skin incision and removal of connective tissue under sterile conditions, a 5.0 mm diameter craniotomy was performed in the left parietotemporal skull using a pedal-operated high-speed micro-drill mounted on the stereotaxic arm. A 5.0-mm diameter bone disc was then removed to expose the left cortex, while keeping the dura mater intact.”
Gelatinase activity in brain homogenates was determined by gelatin zymography as described previously, [16]. […] Bound material was released from the beads using 10% DMSO in TBS, and samples were analyzed by electrophoresis in a 10% SDS-PAGE gel containing 0.1% gelatin under non-reducing conditions, followed by incubation overnight at 37°C in 50 mM Tris buffer, pH 8, with 5 mM CaCl2, 200 mM NaCl, and 0.02% Brij 35. […]

[7] = Plasma and brain levels and pharmacokinetics of SB-3CT and p-OH SB-3CT after repeated i.p. SB-3CT (UPLC/ESI-MRM); conditions: mice
Method: as §3, §4, §5, §6

[8] = Regional brain distribution of SB-3CT and p-OH SB-3CT after repeated i.p. SB-3CT; format: in vivo, mouse; conditions: mice; for Conc, whole brain: 10 minutes after the last i.p. dose of SB-3CT (25 mg/kg at 0, 2, 24 h)
Method: as §3, §4
The homogenates were centrifuged twice at 20,000×g for 20 minutes at 4°C. […] Quantification was performed using peak area ratios relative to the internal standard and linear regression parameters were calculated from the calibration curve standards prepared in blank mouse plasma (and blank brain). The internal standard used in all of the analyses was N-(4-(4-((thiiran-2-ylmethyl)sulfonyl)phenoxy)phenyl)methanesulfonamide [43], which was analyzed by MRM using the transition 398→261. The chromatographic, MRM conditions, and method validation were the same as previously described [17].

[9] = cited from earlier work
[10] = test system: TBI mouse model (EM impactor CCI); test: Microglial activation and astrogliosis, CD11b/GFAP immunofluorescence after TBI; format: in vivo; conditions: TBI mice, SB-3CT treatment for 7 days; 7 days post-trauma
Method: as §1, with “VA).” for “VA). Following a midline skin incision and removal of connective tissue under sterile conditions, a 5.0 mm diameter craniotomy was performed in the left parietotemporal skull using a pedal-operated high-speed micro-drill mounted on the stereotaxic arm. A 5.0-mm diameter bone disc was then removed to expose the left cortex, while keeping the dura mater intact.”
as §2

MMP-9 [11] = conditions: cited from earlier work
[12] = repeated 25 mg/kg i.p. SB-3CT (0, 2, 24 h), 10 min after last dose
[13] = repeated 25 mg/kg i.p. SB-3CT, 10 min after last dose
[14] = repeated 25 mg/kg i.p. SB-3CT, 20 min after last dose
[15] = repeated 25 mg/kg i.p. SB-3CT, 30 min after last dose
[16] = repeated 25 mg/kg i.p. SB-3CT, 60 min after last dose
[17] = repeated 25 mg/kg i.p. SB-3CT, 90 min after last dose
[18] = repeated 25 mg/kg i.p. SB-3CT, 120 min after last dose
[19] = repeated 25 mg/kg i.p. SB-3CT, 180 min after last dose
[20] = 10 minutes after the last i.p. dose of SB-3CT

O=S(=O)(CC1CS1)c1ccc(Oc2ccccc2)cc1 (stereo not shown) [SB-3CT]
Reduction in brain damage (cortical lesion volume) vs vehicle ([1]; 7 days post-trauma): ~14%
Cortical lesion volume ([1]; 30 days post-trauma): 15.60±1.26 mm^3
Cortical lesion volume smaller than vehicle ([1]; 30 days post-trauma): approximately 24%
Hippocampal lesion volume ([1]; 30 days post-trauma): 4.91±0.40 mm^3
Hippocampal lesion volume smaller than vehicle ([1]; 30 days post-trauma): approximately 26%
Barnes maze latency AUC over 10 trials (memory acquisition) vs vehicle ([2]; 5-day task started 18 days post-trauma): ameliorated cognitive deficits
Barnes maze latency and error numbers vs vehicle ([2]; last two days of the trials (days 22 and 23 after TBI)): significantly attenuated
AUC 0–last, brain [3]: 86.1 pmol·min/mg
AUC 0–last, plasma [3]: 130 µM·min
AUC 0–∞, brain [3]: 87.8 pmol·min/mg
AUC 0–∞, plasma [3]: 134 µM·min
t ½β (elimination half-life), brain [3]: 53 min
t ½β (elimination half-life), plasma [3]: 25 min
Reduction of motor deficits (beam-walking foot faults) vs vehicle ([4]; day 7 after TBI): more than 50%
Motor function recovery (beam-walking) ([4]; day 14 after TBI): almost-complete recovery
Surviving neurons with dendrites, contralateral cortex [5]: 7.53±0.59%
Surviving neurons with dendrites, lesioned cortex [5]: 2.86±0.63%
Levels of proMMP-9 and active MMP-9 in lesioned cortex (gelatin zymography, densitometry) (MMP-9 [6]): attenuated
Brain AUC 0–∞, equivalent ([7]; assuming a density of 1 g/mL, repeated 25 mg/kg i.p. SB-3CT): 87.8 µM·min
t ½α, brain ([7]; repeated 25 mg/kg i.p. SB-3CT): 8.7 min
t ½α, plasma ([7]; repeated 25 mg/kg i.p. SB-3CT): 6.6 min
Brain concentration [7, 12]: 3.7±0.5 pmole/mg tissue
Plasma concentration [7, 13]: 6.2 ± 0.1 µM
Brain concentration [7, 14]: 1.6±0.3 pmole/mg tissue
Plasma concentration [7, 14]: 2.9 ± 0.3 µM
Brain concentration [7, 15]: 0.99±0.09 pmole/mg tissue
Plasma concentration [7, 15]: 0.76 ± 0.26 µM
Brain concentration [7, 16]: 0.19±0.05 pmole/mg tissue
Plasma concentration [7, 16]: 0.55 ± 0.08 µM
Brain concentration [7, 17]: 0.16±0.08 pmole/mg tissue
Plasma concentration [7, 17]: 0.22 ± 0.13 µM
Brain concentration [7, 18]: 0.049±0.013 pmole/mg tissue
Plasma concentration [7, 18]: 0.10 ± 0.04 µM
Brain concentration [7, 19]: 0.022±0.005 pmole/mg tissue
Conc, whole brain [8]: 3.7±0.5 pmole/mg tissue
Conc, brain stem [8, 20]: 2.8±0.8 pmole/mg tissue
Conc, cerebellum [8, 20]: 2.4±0.4 pmole/mg tissue
Conc, cortex [8, 20]: 2.7±0.8 pmole/mg tissue
Conc, hippocampus [8, 20]: 3.1±0.8 pmole/mg tissue
Conc, plasma [8, 20]: 6.2 ± 0.1 µM
Conc, striatum [8, 20]: 3.5±1.1 pmole/mg tissue
Brain AUC 0–∞ ([9]; following a single dose of SB-3CT): 122 pmol·min/mg
Elimination half-life ([9]; mouse, in vivo): 46 min
Immunoreactivity of GFAP-stained astrocytes [10]: partially attenuated
Numbers of CD11b-positive microglial cells in lesioned cortex vs vehicle [10]: significantly reduced

O=S(=O)(CC1CS1)c1ccc(Oc2ccc(O)cc2)cc1 (stereo not shown) [p-OH SB-3CT]
Ki (MMP-9 [11]): 160 nM
AUC 0–last, brain ([7]; repeated 25 mg/kg i.p. SB-3CT): 2.98 pmol·min/mg
AUC 0–last, plasma ([7]; repeated 25 mg/kg i.p. SB-3CT): 1.45 µM·min
AUC 0–∞, brain ([7]; repeated 25 mg/kg i.p. SB-3CT): 4.61 pmol·min/mg
t ½α, brain ([7]; repeated 25 mg/kg i.p. SB-3CT): 4.2 min
t ½α, plasma ([7]; repeated 25 mg/kg i.p. SB-3CT): 3.4 min
t ½β (elimination half-life), brain ([7]; repeated 25 mg/kg i.p. SB-3CT): 187 min
Brain concentration [7, 12]: 0.14±0.04 pmole/mg tissue
Plasma concentration [7, 13]: 0.12 ± 0.03 µM
Brain concentration [7, 14]: 0.026±0.005 pmole/mg tissue
Plasma concentration [7, 14]: 0.016 ± 0.004 µM
Brain concentration [7, 15]: 0.015±0.004 pmole/mg tissue
Plasma concentration [7, 15]: 0.0060 ± 0.0010 µM
Brain concentration [7, 16]: 0.011±0.007 pmole/mg tissue
Brain concentration [7, 17]: 0.0081±0.0022 pmole/mg tissue
Brain concentration [7, 18]: 0.0076±0.0009 pmole/mg tissue
Brain concentration [7, 19]: 0.0060±0.0004 pmole/mg tissue
Brain AUC /Plasma AUC ([7]; ratio of AUC 0–last, repeated 25 mg/kg i.p. SB-3CT): 2.1
Conc, whole brain [8]: 0.14±0.04 pmole/mg tissue
Conc, brain stem [8, 20]: 0.13±0.03 pmole/mg tissue
Conc, cerebellum [8, 20]: 0.13±0.03 pmole/mg tissue
Conc, cortex [8, 20]: 0.16±0.05 pmole/mg tissue
Conc, hippocampus [8, 20]: 0.11±0.03 pmole/mg tissue
Conc, plasma [8, 20]: 0.12 ± 0.03 µM
Conc, striatum [8, 20]: 0.12±0.04 pmole/mg tissue
Ratio of concentration, brain stem to plasma [8, 20]: 1.1±0.4
Ratio of concentration, cerebellum to plasma [8, 20]: 1.1±0.4
Ratio of concentration, cortex to plasma [8, 20]: 1.3±0.5
Ratio of concentration, hippocampus to plasma [8, 20]: 0.92±0.34
Ratio of concentration, striatum to plasma [8, 20]: 1.0±0.4
Ratio of concentration, whole brain to plasma [8, 20]: 1.2±0.4
